Where “and” joins values, the source holds several entries; their conditions need not be identical. Equal entries are not always repeated.
Columns and labels:
[1] = tested on: recombinant Arabidopsis ENOX1; test: NADH oxidase activity of IEF-purified recombinant Arabidopsis ENOX1; assay type: biochemical
Description: (§1) Cells were centrifuged at 5,000 g for 6 min. Pellets were then resuspended in 20 mM Tris-HCl, pH 8.0, containing 0.5 mM PMSF, 1 mM benzamidine and 1 mM 6-aminocaproic and lysed by three passages through a French pressure cell (SLM Aminco) at 20,000 psi. Expression of the recombinant Arabidopsis ENOX1 of about 14 kDa was confirmed by SDS-PAGE with silver staining. Transformed cells were stored at −80° C. in a standard glycerol stock solution. The Arabidopsis ENOX1 proteins were further purified on Criterion IEF gels (Bio-Rad, Hercules, Calif.). The IEF gel was cut into seven equal segments. The pH represented by each slice was based on IEF standards (Bio-Rad). The slices were soaked in 15 mM Tris-Mes buffer, pH 7, at 4° C. for overnight with shaking. The gel-free extracts were assayed for ENOX1 activity.
(§2) Oxidation of NADH was determined spectrophotometrically from the disappearance of NADH measured at 340 nm in a reaction mixture containing 25 mM Tris-MES (pH 7.2), 100 μM GSH, 1 mM KCN to inhibit mitochondrial oxidase activity, 150 μM NADH and the enzyme at 37° C. with temperature control (±0.5° C.) and stirring. Prior to assay, 1 μM reduced glutathione was added to reduce the protein in the presence of substrate. After 10 min, 0.03% hydrogen peroxide was added to reoxidize the protein under renaturing conditions and in the presence of substrate to start the reaction. Activities were measured using paired Hitachi U3210 or paired SLM Aminco 2000 spectrophotometers both with continuous recording. Assays were run for 1 min and were repeated on the same sample at intervals of 1.5 min for the times indicated. An extinction coefficient of 6.22 cm^−1 mM^−1 was used to determine specific activity.
IEF purified ENOX1 was concentrated to 0.7 mg/ml by using a Centricon concentrator (Millipore Corporation, Danvers, Mass.) fitted with a 10,000 nominal molecular weight limit ultracel YM membrane. Samples (50 μl) were combined with 1 μl of trifluoroacetic acid (TFA) in the presence or absence of 15 μl 10 mM bathocuproine. After 2 h of incubation at room temperature, the samples were dialyzed (Spectra/Pro Dialysis membrane, molecular weight cut-off 6-8,000, Spectrum Laboratories (Rancho Dominguez, Calif.) against 20 mM Tris-HCl, pH 8, at 4° C. overnight.

[2] = tested on: dNOX of soybean; test: Stimulation of NOX activity of soybean plasma membranes (dNOX of soybean); assay type: biochemical; details: 1 μM
[3] = target: T1, recombinant ABP-20 (Prunus persica, UniProt O04011, DUP151-151); test: NADH oxidase activity of IEF-purified recombinant ABP-20 (dNOX); assay type: biochemical
T1 construct: made in house; host or cells: E. coli BL21 (DE3), pET11b
T1 sequence (O04011 other isoform, or with tags, fused parts or gaps DUP151-151): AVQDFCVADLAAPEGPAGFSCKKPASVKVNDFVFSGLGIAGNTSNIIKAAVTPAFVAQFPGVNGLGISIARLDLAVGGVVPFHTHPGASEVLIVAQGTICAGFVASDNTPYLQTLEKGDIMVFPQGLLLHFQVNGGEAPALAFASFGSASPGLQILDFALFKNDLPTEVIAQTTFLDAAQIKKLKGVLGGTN
Description: as §2
as §1, with “recombinant ABP-20” for “recombinant Arabidopsis ENOX1”, “about 20” for “about 14”, “The recombinant” for “The Arabidopsis ENOX1”, “for ENOX activities as follows: […]” for “for ENOX1 activity.”

[4] = tested on: 375 NR soybeans; test: TR-III spray, greenhouse soybeans, plant height above cotyledons; assay type: in vivo, soybean; design: Plant height above cotyledons: unit not given beside the values; details: for Plant height above cotyledons: single experiments, 10 days after spraying
[5] = tested on: soybean plants; test: TR-III spray, greenhouse soybeans from untreated seed, epicotyl enlargement; assay type: in vivo
Excerpt: FIG. 20. As in FIG. 19, except plants were from untreated seed and sprayed with different rates of TR-III.

[6] = tested on: plasma membrane ENOX1; test: Plasma membrane ENOX1 activity with added cysteine; assay type: biochemical, soybean; details: for ENOX1: +100 μM cysteine
[7] = tested on: soybean shoots; test: Shoot growth of excised soybean shoots in TR-III solutions; assay type: in vivo; details: narrow range, FIG. 18
Excerpt: FIG. 18. As in FIG. 17, except untreated seeds were germinated and excised shoots were transferred to TR-III solutions of different concentrations prepared in water.

[8] = tested on: soybeans; test: Soybean field experiment with TR-III foliar spray, standability; assay type: in vivo; details: 0.01 lb/A foliar spray; No TR-III plants severely lodged
Excerpt: FIG. 21. Pods per plant of soybeans in a field experiment comparing no TR-III (solid symbols) with 0.01 lb/A TR-III (open symbols, dashed lines) as a foliar spray applied July 3. FIG. 23. Standability of soybeans from the field experiment of FIG. 21. No TR-III plants (left) were severely lodged.

[9] = target: T2, recombinant human ENOX2 (Homo sapiens, UniProt Q16206); test: Inhibition of recombinant human ENOX2 assayed in parallel; assay type: biochemical; details: read-out: inhibition of recombinant human ENOX2
T2 sequence (Q16206 1-610): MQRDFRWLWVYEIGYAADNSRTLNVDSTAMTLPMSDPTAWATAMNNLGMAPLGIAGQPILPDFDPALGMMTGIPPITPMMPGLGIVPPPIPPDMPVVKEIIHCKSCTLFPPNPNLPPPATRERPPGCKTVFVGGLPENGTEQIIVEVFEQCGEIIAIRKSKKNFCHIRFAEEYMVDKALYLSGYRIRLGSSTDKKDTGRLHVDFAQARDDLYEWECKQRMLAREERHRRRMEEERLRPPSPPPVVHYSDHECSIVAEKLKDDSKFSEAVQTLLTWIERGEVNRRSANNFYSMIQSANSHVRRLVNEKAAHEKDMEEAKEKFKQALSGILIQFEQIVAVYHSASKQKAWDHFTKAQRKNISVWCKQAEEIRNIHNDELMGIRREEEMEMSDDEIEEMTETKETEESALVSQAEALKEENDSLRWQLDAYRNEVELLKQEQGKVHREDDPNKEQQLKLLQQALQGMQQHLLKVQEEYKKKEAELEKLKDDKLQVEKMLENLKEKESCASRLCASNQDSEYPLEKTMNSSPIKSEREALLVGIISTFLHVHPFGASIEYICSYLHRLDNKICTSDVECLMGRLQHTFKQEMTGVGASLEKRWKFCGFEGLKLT
Excerpt: Simalikalactone D is a general ENOX1 inhibitor.

[10] = target: T3, dNOX (ABP-20) (Prunus persica, UniProt O04011, C44A/DUP151-151); test: NADH oxidation of dNOX (ABP-20) site-directed mutants; assay type: biochemical; details: versus wild type
T3 construct: made in house; host or cells: E. coli BL21 (DE3), pET11b (as for the unmodified protein; not repeated for the mutants)
T3 sequence (O04011 other isoform, or with tags, fused parts or gaps C44A/DUP151-151): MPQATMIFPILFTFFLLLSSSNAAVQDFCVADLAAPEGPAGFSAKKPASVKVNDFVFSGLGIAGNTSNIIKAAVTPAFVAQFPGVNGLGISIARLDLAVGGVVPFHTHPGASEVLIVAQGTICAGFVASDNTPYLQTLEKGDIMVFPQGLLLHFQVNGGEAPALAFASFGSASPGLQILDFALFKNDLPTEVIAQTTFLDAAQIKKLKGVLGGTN
Description: as §2
(§3) Amino acids indicated were replaced by alanines by site-directed mutagenesis according to Braman et al. (Braman, J., Papworth, C. and Greener, A. 1996. Methods Mol. Biol. 57:32-44). Numbered amino acids and nucleotide positions of splice variant products refer to numbers assigned to amino acids of the full length transcript

[11] = tested on: dNOX (ABP-20); test: as above; assay type: biochemical
Description: as §2, §3

[12] = target: T3, dNOX (ABP-20); test: DTDP (protein disulfide-thiol) interchange of dNOX (ABP-20) site-directed mutants; assay type: biochemical; details: versus wild type
Description: (§4) Protein disulfide-thiol interchange was determined spectrophotometrically from the increase in absorbance at 340 nm resulting from the cleavage of dithiodipyridine (DTDP (Morré, D. J., Gomez-Rey, M. L., Schramke, C., Em, O., Lawler, J., Hobeck, J. and Morré, D. M. 1999. Mol. Cell. Bochem. 200: 7-13). DTDP cleavage was buffered (50 mM Tris-MES, pH 7). The assay was preincubated (1 h at room temperature) with 0.5 μmoles 2,2′-dithiodipyridine (DTDP) in 5 μl of DMSO to react with endogenous reductants present with the plasma membranes. After 10 min, a further […] DTDP were added in 35 μl DMSO to start the reaction. The final reaction volume was […]. The reaction was monitored from the increase in absorbance at 340 nm. Specific activities were calculated using a milimolar absorption coefficient of 6.21.
as §3

[13] = tested on: dNOX (ABP-20); test: as above; assay type: biochemical
Description: as §4, §3

O=C(O)COc1ccc(Cl)cc1Cl [2,4-dichlorophenoxyacetic acid]
NADH oxidase activity ([1]; addition 1 μM, average of 3 determinations ± SD, None = 2.7 ± 0.4): 3.7 ± 0.1 µmol/min/mg
Effect on ENOX1 activity eluted from the IEF gel ([1]; concentrations of Table 5): without effect
stimulation of NOX activity of soybean plasma membranes (dNOX) [2]: approximately two-fold
average specific activity ([3]; 1 μM auxin, IEF-purified fractions): ~0.6±0.2 μmoles/min/mg protein
NADH oxidase activity ([3]; addition 1 μM, average of 3 determinations ± SD, None = 0.1 ± 0.08): 0.8 ± 0.2 µmol/min/mg
optimum concentration for activation ([3]; higher concentration less effective): about 1 μM

N[C@@H](CS)C(=O)O [TR-III, cysteine]
Stimulation of NADH oxidation ([1]; recombinant protein expressed in bacteria, FIG. 14): specific for maximum (3)
Plant height above cotyledons, Ave + MAD ([4]; spray 0.001 lb/A, 0 lb/A: 13.6 ± 0.3): 14.7 ± 0.1
Plant height above cotyledons ([4]; spray 0.001 lb/A, 0 lb/A: 13.3, 13.9): 14.8 and 14.6
Plant height above cotyledons, Ave + MAD ([4]; spray 0.01 lb/A): 14.4 ± 0.1
Plant height above cotyledons ([4]; spray 0.01 lb/A): 14.3 and 14.5
Plant height above cotyledons, Ave + MAD ([4]; spray 0.1 lb/A): 15.2 ± 0.7
Plant height above cotyledons ([4]; spray 0.1 lb/A): 14.4 and 15.9
Epicotyl enlargement ([5]; spray 0.001 or 0.1 lb/A): little or no effect
Epicotyl enlargement ([5]; spray 0.01 lb/A): Epicotyl enlargement was observed
response of plasma membrane ENOX1 activity to added cysteine ([6]; 100 μM, both ST-109-2-4 and Williams 82): about 12%
ENOX1 ([6]; plasma membranes of Williams 82 ISU, −cysteine 0.060 ± 0.003): 0.072 ± 0.003 μmoles/min/mg protein
ENOX1 ([6]; plasma membranes of transgenic ST-109-2-4, −cysteine 0.110 ± 0.004): 0.123 ± 0.005 μmoles/min/mg protein
concentration range stimulating shoot growth [7]: around 10^−7 M
Standability (lodging) [8]: did not lodge

Oc1ccc(C2=Cc3ccc(O)cc3OC2)cc1 [Phenoxodiol]
inhibition at 10 µM [9]: > 90%

B1: C44A: ABP-20 with C44 replaced by alanine (CKK motif) (protein, UniProt O04011 24-214, looked up, variant C44A)
Auxin-binding protein ABP20: AVQDFCVADLAAPEGPAGFSAKKPASVKVNDFVFSGLGIAGNTSNIIKAAVTPAFVAQFPGVNGLGISIARLDLAVGGVVPFHTHPGASEVLIVAQGTICAGFVASDNTPYLQTLEKGDIMVFPQGLLHFQVNGGEAPALAFASFGSASPGLQILDFALFKNDLPTEVIAQTTFLDAAQIKKLKGVLGGTN
reduction of NADH oxidation activity [10]: 81%
NADH Oxidation [11]: 0.15 ± 0.05 μmoles/min/mg protein
reduction of protein disulfide-dithiol interchange activity [12]: 81%
DTDP Interchange [13]: 0.02 ± 0.01 μmoles/min/mg protein

From patent publication US20160108414A1, “GROWTH-RELATED ENOX PROTEINS FROM PLANTS WITH YIELD ENHANCEMENT POTENTIAL, SEQUENCES AND METHODS” (Mor-NuCo Enterprises, Inc., priority 2013, published 2016)
